In article PMC3703888, “Integration of Different “-omics” Technologies Identifies Inhibition of the IGF1R-Akt-mTOR Signaling Cascade Involved in the Cytotoxic Effect of Shikonin against Leukemia Cells” (Evidence-based Complementary and Alternative Medicine : eCAM, 2013):
“Also recorded” adds a separate entry of the source.

How the values were obtained:
p-Akt = assay: FlowCellect PI3K-mTOR signaling cascade assay (flow cytometry), p-Akt; assay type: cell-based; conditions: 24 h
From the text: The FlowCellect PI3K-mTOR signaling cascade assay kit (Merck Millipore, Germany) was used to analyze the effect of shikonin on the PI3K-mTOR signaling pathway. The assay is based on two directly conjugated phospho-specific signaling antibodies against phosphorylated Akt and phosphorylated ribosomal S6 protein, which are both important signaling nodes of the mTOR cascade. The phosphorylation of Akt is indicative of the upstream PI3K signaling, marking the cells initiation into proliferation or cell survival. Phosphorylated-ribosomal S6 protein is indicative of downstream mTOR and p70S6K signaling leading to protein translation. The assay was performed according to the manufacture's protocol. Briefly, 1.5 × 10^6 U937 cells were treated with 0.3 μM shikonin or DMSO solvent control and incubated for 24 h. Subsequently, cells were fixed on ice for 20 min using the supplied fixation buffer. After fixation, cells were washed twice and treated with permeabilization buffer on ice for 20 min. After two further washing steps, cells were resuspended in a final volume of 90 μL assay buffer and incubated with 5 μL 20x anti-phospho-ribosomal protein S6 (Ser235) PerCP conjugated monoclonal antibody and 5 μL 20x anti-phospho-Akt1/PKBα (Ser473) Alexa Fluor 488 conjugated monoclonal antibody in the dark on ice for one hour. After antibody incubation, cells were centrifuged and resuspended in 500 μL assay buffer. Subsequently, cells were measured in a LSR-Fortessa FACS analyzer (Becton-Dickinson, Germany) and shikonin fluorescence was compensated for the respective channels. For each sample, 1 × 10^4 cells were counted. The PerCP signal was measured with 488 nm excitation and detected using a 670/30 nm bandpass filter. The Alexa Fluor 488 signal was analyzed with 488 nm excitation and detected using a 530/30 nm bandpass filter. All parameters were plotted on a logarithmic scale. Cytographs were analyzed using FlowJo software (Celeza, Switzerland). All experiments were performed at least in triplicate. Student's t-test was used for statistical analysis.

U937 leukemia cells = assay: Resazurin reduction assay (cytotoxicity); assay type: cell-based; conditions: Homo sapiens, U-937, 24 h treatment, read-out: IC50 (inhibition of U937 proliferation by 50%)
Protocol: Resazurin reduction assay was performed to assess cytotoxicity of shikonin toward U937 cells. The assay is based on reduction of the indicator dye, resazurin, to the highly fluorescent resorufin by viable cells. Nonviable cells rapidly lose the metabolic capacity to reduce resazurin and thus produce no fluorescent signal. Briefly, aliquots of 2 × 10^4 U937 cells per well were seeded in 96-well plates in a total volume of 100 μL. Shikonin was immediately added in varying concentrations in an additional 100 μL of culture medium to obtain a total volume of 200 μL/well. After 24 h, 20 μL resazurin (Sigma-Aldrich, Germany) 0.01% w/v in ddH2O was added to each well and the plates were incubated at 37°C for 4 h. Fluorescence was measured on an Infinite M2000 Pro plate reader (Tecan, Germany) using an excitation wavelength of 544 nm and an emission wavelength of 590 nm. Each assay was done at least two times, with six replicates each. The viability was evaluated based on a comparison with untreated cells. IC50 value represents the shikonin concentrations required to inhibit 50% of cell proliferation and was calculated from a calibration curve by linear regression using Microsoft Excel.

IGF1R = target: T1, IGF1R (Homo sapiens, UniProt P08069); assay: Radiometric protein kinase assay (33PanQinase Activity Assay); assay type: biochemical; conditions: purified IGF1R kinase, nonlinear regression
T1 construct: purchased ProQinase GmbH (Freiburg, Germany)
T1 sequence (P08069 31-1367): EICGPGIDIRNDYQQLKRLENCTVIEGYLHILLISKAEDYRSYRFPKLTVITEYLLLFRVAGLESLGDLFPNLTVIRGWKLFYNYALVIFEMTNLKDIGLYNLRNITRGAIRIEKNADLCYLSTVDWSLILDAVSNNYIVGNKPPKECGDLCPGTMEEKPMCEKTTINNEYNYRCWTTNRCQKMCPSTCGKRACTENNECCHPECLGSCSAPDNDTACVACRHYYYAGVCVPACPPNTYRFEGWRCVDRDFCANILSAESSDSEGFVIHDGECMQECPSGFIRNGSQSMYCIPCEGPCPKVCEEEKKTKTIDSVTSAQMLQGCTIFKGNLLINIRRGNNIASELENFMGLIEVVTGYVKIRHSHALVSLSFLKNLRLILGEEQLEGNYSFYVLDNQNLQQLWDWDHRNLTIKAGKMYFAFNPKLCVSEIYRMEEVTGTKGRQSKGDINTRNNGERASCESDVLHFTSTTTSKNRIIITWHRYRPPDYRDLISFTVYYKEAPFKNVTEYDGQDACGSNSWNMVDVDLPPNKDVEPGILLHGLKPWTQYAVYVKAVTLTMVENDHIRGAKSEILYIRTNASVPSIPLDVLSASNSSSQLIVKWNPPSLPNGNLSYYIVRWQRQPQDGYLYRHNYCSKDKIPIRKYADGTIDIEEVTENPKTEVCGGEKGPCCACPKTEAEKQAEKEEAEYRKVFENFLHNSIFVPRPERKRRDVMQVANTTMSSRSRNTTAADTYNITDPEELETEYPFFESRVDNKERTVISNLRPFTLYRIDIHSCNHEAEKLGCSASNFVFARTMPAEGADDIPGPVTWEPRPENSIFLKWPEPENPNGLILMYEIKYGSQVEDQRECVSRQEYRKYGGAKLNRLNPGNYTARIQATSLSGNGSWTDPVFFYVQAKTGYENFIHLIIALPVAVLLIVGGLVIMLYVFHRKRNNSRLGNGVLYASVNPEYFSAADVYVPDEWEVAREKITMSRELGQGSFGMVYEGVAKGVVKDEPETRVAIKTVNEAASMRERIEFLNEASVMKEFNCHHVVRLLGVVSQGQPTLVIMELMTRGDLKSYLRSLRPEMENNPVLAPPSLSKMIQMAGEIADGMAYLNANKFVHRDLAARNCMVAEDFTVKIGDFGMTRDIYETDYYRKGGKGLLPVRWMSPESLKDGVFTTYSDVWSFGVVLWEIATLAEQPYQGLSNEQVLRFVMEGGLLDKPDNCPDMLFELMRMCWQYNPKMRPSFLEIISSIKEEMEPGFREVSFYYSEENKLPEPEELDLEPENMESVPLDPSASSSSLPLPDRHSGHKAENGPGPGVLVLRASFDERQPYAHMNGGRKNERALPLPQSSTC
Protocol: The kinase inhibition assay was performed by ProQinase GmbH (Freiburg, Germany). Shikonin was provided as 1.85 × 10^−3 M stock solution in DMSO. In the process, shikonin was serially diluted in semi-log steps with 100% DMSO in a 96-well microtiter plate. Directly before use, shikonin was further diluted 1 : 10 with water. Shikonin was tested at 10 final assay concentrations in the range from 1.85 × 10^−5 M to 5.55 × 10^−10 M. The final DMSO concentration in the reaction cocktails was 1% in all cases. A radiometric protein kinase assay (^33PanQinase Activity Assay) was used for measuring the kinase activity of IGF1R. All kinase assays were performed in 96-well FlashPlates from Perkin Elmer (Boston, MA, USA) in a 50 μL reaction volume. […] Incorporation of ^33Pi (counting of “cpm”) was determined with a Wallac MicroBeta scintillation counter (Perkin Elmer). […] Kinase activity was evaluated based on a comparison with experiments containing the complete reaction cocktail but no shikonin. A complete reaction cocktail without kinase served as control for unspecific binding of radioactivity to the plate in the absence of protein kinase but in the presence of shikonin. IC50 values were calculated by nonlinear regression using Prism 5.04 (Graphpad, CA, USA).

[1] = cytograph p-Akt / p-ribosomal protein S6, U937 cells, 0.3 μM

CC(C)=CC[C@@H](O)C1=CC(=O)c2c(O)ccc(O)c2C1=O [shikonin]
Phosphorylation of Akt (p-Akt; U937 cells, 0.3 μM shikonin): significantly inhibits; also recorded: significantly decreased | Cells in quadrant Q1 (p-Akt; [1]): 27.2% | Cells in quadrant Q2 (p-Akt; [1]): 61.4% | Cells in quadrant Q3 (p-Akt; [1]): 1.10% | Cells in quadrant Q4 (p-Akt; [1]): 10.3% | IC50 (U937 leukemia cells): 300 nM | IC50 (IGF1R): 2600 nM
